This note sets out measurements from US10370343B2, “[6,6] Fused bicyclic HDAC8 inhibitors” (FORMA Therapeutics, Inc., priority 2015, dated 2019).

A value given as a limit tells only on which side of the number the result lay.

The target in this assay is T1, Recombinant N-terminal GST tag full-length human HDAC8 (Homo sapiens, UniProt Q9BY41).
T1 construct: Recombinant N-terminal GST tag full-length human HDAC8; purchased SignalChem H90-30G-1000; host or cells: baculovirus in Sf9 insect cells
T1 sequence (Q9BY41 1-377): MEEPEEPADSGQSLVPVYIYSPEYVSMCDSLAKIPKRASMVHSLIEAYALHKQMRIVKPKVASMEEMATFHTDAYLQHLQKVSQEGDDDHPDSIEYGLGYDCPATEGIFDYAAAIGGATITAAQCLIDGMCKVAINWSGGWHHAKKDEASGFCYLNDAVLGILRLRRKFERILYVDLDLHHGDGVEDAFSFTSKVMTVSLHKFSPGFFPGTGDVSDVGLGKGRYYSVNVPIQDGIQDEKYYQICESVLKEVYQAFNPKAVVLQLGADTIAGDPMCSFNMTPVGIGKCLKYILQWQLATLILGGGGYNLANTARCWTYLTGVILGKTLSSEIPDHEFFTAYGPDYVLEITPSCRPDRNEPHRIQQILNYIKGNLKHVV
The assay can be described thus: HDAC8 probe binding assay, time resolved fluorescence (TRF) format. To be noted: compounds grouped by IC50 range (Table 2). An outline of the steps: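 Probe-binding TRF assay using full-length N-GST human HDAC8 expressed in baculovirus-infected Sf9 cells, incubated 16 h at room temperature and read at 340 nm excitation, 485/535 nm emission. Percent inhibition was normalised to no-enzyme and DMSO controls. IC50 was obtained by 4-parameter logistic fit.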

Regarding `O=C(NO)c1ccc2c(c1)N(Cc1ccn3nccc3c1)C(=O)CO2` [Compound I-339, N-hydroxy-3-oxo-4-(pyrazolo[1,5-a]pyridin-5-ylmethyl)-3,4-dihydro-2H-benzo[b][1,4]oxazine-6-carboxamide], the IC50 is at most 25 nM.
As for `O=C(NO)c1ccc2c(c1)N(Cc1cccc(Cl)c1F)C(=O)CO2` [Compound I-340, 4-(3-chloro-2-fluorobenzyl)-N-hydroxy-3-oxo-3,4-dihydro-2H-benzo[b][1,4]oxazine-6-carboxamide], the IC50 was at most 25 nM.
Regarding `COc1ccc(CN2C(=O)COc3ccc(C(=O)NO)cc32)c(F)c1` [Compound I-341, 4-(2-fluoro-4-methoxybenzyl)-N-hydroxy-3-oxo-3,4-dihydro-2H-benzo[b][1,4]oxazine-6-carboxamide], the IC50 was at most 25 nM.
On to `COc1cc(F)cc(CN2C(=O)COc3ccc(C(=O)NO)cc32)c1` [Compound I-342, 4-(3-fluoro-5-methoxybenzyl)-N-hydroxy-3-oxo-3,4-dihydro-2H-benzo[b][1,4]oxazine-6-carboxamide], for which the IC50 lay in the range of 25 to 100 nM.
`O=C(NO)c1ccc2c(c1)N(Cc1cc(F)cc(Cl)c1)C(=O)CO2` [Compound I-343, 4-(3-chloro-5-fluorobenzyl)-N-hydroxy-3-oxo-3,4-dihydro-2H-benzo[b][1,4]oxazine-6-carboxamide]: the IC50 is at most 25 nM.
As for `O=C(NO)c1ccc2c(c1)N(Cc1ccc(Cl)cc1F)C(=O)CO2` [Compound I-344, 4-(4-chloro-2-fluorobenzyl)-N-hydroxy-3-oxo-3,4-dihydro-2H-benzo[b][1,4]oxazine-6-carboxamide], the IC50 was at most 25 nM.
For the compound `O=C(NO)c1ccc2c(c1)N(Cc1ccc(Cl)c(C(F)(F)F)c1)C(=O)CO2` [Compound I-345, 4-(4-chloro-3-(trifluorornethyl)benzyl)-N-hydroxy-3-oxo-3,4-dihydro-2H-benzo[b][1,4]oxazine-6-carboxamide], the IC50 was at most 25 nM.
Consider `O=C(NO)c1ccc2c(c1)N(Cc1ccc(Cl)c(F)c1)C(=O)CO2` [Compound I-346, 4-(4-chloro-3-fluorobenzyl)-N-hydroxy-3-oxo-3,4-dihydro-2H-benzo[b][1,4]oxazine-6-carboxamide], for which the IC50 was at most 25 nM.
Take `COc1ccc(Cl)c(CN2C(=O)COc3ccc(C(=O)NO)cc32)c1` [Compound I-347, 4-(2-chloro-5-methoxybenzyl)-N-hydroxy-3-oxo-3,4-dihydro-2H-benzo[b][1,4]oxazine-6-carboxamide]: the IC50 is at most 25 nM.
Take `O=C(NO)c1ccc2c(c1)N(Cc1cc(Cl)ccc1F)C(=O)CO2` [Compound I-348, 4-(5-chloro-2-fluorobenzyl)-N-hydroxy-3-oxo-3,4-dihydro-2H-benzo[b][1,4]oxazine-6-carboxamide]: the IC50 was at most 25 nM.
The result for `O=C(NO)c1ccc2c(c1)N(Cc1cc(Cl)cc(C(F)(F)F)c1)C(=O)CO2` [Compound I-349, 4-(3-chloro-5-(trifluoromethyl)benzyl)-N-hydroxy-3-oxo-3,4-dihydro-2H-benzo[b][1,4]oxazine-6-carboxamide] reads 25 to 100 nM; that for `COc1cc(CN2C(=O)COc3ccc(C(=O)NO)cc32)ccc1Cl` [Compound I-350, 4-(4-chloro-3-methoxybenzyl)-N-hydroxy-3-oxo-3,4-dihydro-2H-benzo[b][1,4]oxazine-6-carboxamide], at most 25 nM.
For the compound `O=C(NO)c1ccc2c(c1)N(Cc1ccc(F)c(Cl)c1)C(=O)CO2` [Compound I-351, 4-(3-chloro-4-fluorobenzyl)-N-hydroxy-3-oxo-3,4-dihydro-2H-benzo[b][1,4]oxazine-6-carboxamide], the IC50 is at most 25 nM.
The result for `O=C(NO)c1ccc2c(c1)N(Cc1cc(F)ccc1Cl)C(=O)CO2` [Compound I-352, 4-(2-chloro-5-fluorobenzyl)-N-hydroxy-3-oxo-3,4-dihydro-2H-benzo[b][1,4]oxazine-6-carboxamide] reads at most 25 nM; that for `COc1cc(CN2C(=O)COc3ccc(C(=O)NO)cc32)ccc1F` [Compound I-353, 4-(4-fluoro-3-methoxybenzyl)-N-hydroxy-3-oxo-3,4-dihydro-2H-benzo[b][1,4]oxazine-6-carboxamide], 25 to 100 nM.
As to `O=C(NO)c1ccc2c(c1)N(Cc1cccc(C(F)(F)F)c1Cl)C(=O)CO2` [Compound I-354, 4-(2-chloro-3-(trifluoromethyl)benzyl)-N-hydroxy-3-oxo-3,4-dihydro-2H-benzo[b][1,4]oxazine-6-carboxamide], the IC50 was 25 to 100 nM.
On to `O=C(NO)c1ccc2c(c1)N(Cc1cc(Cl)cc(Cl)c1)C(=O)CO2` [Compound I-355, 4-(3,5-dichlorobenzyl)-N-hydroxy-3-oxo-3,4-dihydro-2H-benzo[b][1,4]oxazine-6-carboxamide], for which the IC50 is at most 25 nM.
Take `O=C(NO)c1ccc2c(c1)N(Cc1ccc(C(F)(F)F)cc1Cl)C(=O)CO2` [Compound I-356, 4-(2-chloro-4-(trifluoromethyl)benzyl)-N-hydroxy-3-oxo-3,4-dihydro-2H-benzo[b][1,4]oxazine-6-carboxamide]: the IC50 was at most 25 nM.
With `O=C(NO)c1ccc2c(c1)N(Cc1nc3cccnc3s1)C(=O)CO2` [Compound I-359, N-hydroxy-3-oxo-4-(thiazolo[5,4-b]pyridin-2-ylmethyl)-3,4-dihydro-2H-benzo[b][1,4]oxazine-6-carboxamide] the figure was at most 25 nM.
Regarding `CN(C)C(=O)c1ccc(CN2C(=O)COc3ccc(C(=O)NO)cc32)cc1` [Compound I-360, 4-(4-(dimethylcarbamoyl)benzyl)-N-hydroxy-3-oxo-3,4-dihydro-2H-benzo[b][1,4]oxazine-6-carboxamide], the IC50 is 25 to 100 nM.
With `CN(C)c1ccc(CN2C(=O)COc3ccc(C(=O)NO)cc32)cc1` [Compound I-361, 4-(4-(dimethylamino)benzyl)-N-hydroxy-3-oxo-3,4-dihydro-2H-benzo[b][1,4]oxazine-6-carboxamide] the figure was at most 25 nM; with `NC(=O)c1ccc(CN2C(=O)COc3ccc(C(=O)NO)cc32)cc1` [Compound I-362, 4-(4-carbamoylbenzyl)-N-hydroxy-3-oxo-3,4-dihydro-2H-benzo[b][1,4]oxazine-6-carboxamide], at most 25 nM.
As to `O=C(NO)c1ccc2c(c1)N(Cc1cn3ccsc3n1)C(=O)CO2` [Compound I-363, N-hydroxy-4-(imidazo[2,1-b]thiazol-6-ylmethyl)-3-oxo-3,4-dihydro-2H-benzo[b][1,4]oxazine-6-carboxamide], the IC50 fell in the range of 25 to 100 nM.
For `Cc1ccn2cc(CN3C(=O)COc4ccc(C(=O)NO)cc43)nc2c1` [Compound I-364, N-hydroxy-4-((7-methylimidazo[1,2-a]pyridin-2-yl)methyl)-3-oxo-3,4-dihydro-2H-benzo[b][1,4]oxazine-6-carboxamide], the IC50 lay in the range of 25 to 100 nM.
The result for `Cc1ccc2nc(CN3C(=O)COc4ccc(C(=O)NO)cc43)cn2c1` [Compound I-365, N-hydroxy-4-((6-methylimidazo[1,2-a]pyridin-2-yl)methyl)-3-oxo-3,4-dihydro-2H-benzo[b][1,4]oxazine-6-carboxamide] reads 25 to 100 nM; that for `O=C(NO)c1ccc2c(c1)N(Cc1cn3cc(F)ccc3n1)C(=O)CO2` [Compound I-368, 4-((6-fluoroimidazo[1,2-a]pyridin-2-yl)methyl)-N-hydroxy-3-oxo-3,4-dihydro-2H-benzo[b][1,4]oxazine-6-carboxamide], 25 to 100 nM.
Regarding `CC(C)NC(=O)c1ccc(CN2C(=O)COc3ccc(C(=O)NO)cc32)cc1` [Compound I-369, N-hydroxy-4-(4-(isopropylcarbamoyl)benzyl)-3-oxo-3,4-dihydro-2H-benzo[b][1,4]oxazine-6-carboxamide], the IC50 is 25 to 100 nM.
For `COc1ccc(F)c(CN2C(=O)COc3ccc(C(=O)NO)cc32)c1` [Compound I-371, 4-(2-fluoro-5-methoxybenzyl)-N-hydroxy-3-oxo-3,4-dihydro-2H-benzo[b][1,4]oxazine-6-carboxamide], the IC50 is at most 25 nM.
For the compound `N#Cc1ccc(CN2C(=O)COc3ccc(C(=O)NO)cc32)c(Cl)c1` [Compound I-372, 4-(2-chloro-4-cyanobenzyl)-N-hydroxy-3-oxo-3,4-dihydro-2H-benzo[b][1,4]oxazine-6-carboxamide], the IC50 was at most 25 nM.
With `N#Cc1ccc(Cl)c(CN2C(=O)COc3ccc(C(=O)NO)cc32)c1` [Compound I-373, 4-(2-chloro-5-cyanobenzyl)-N-hydroxy-3-oxo-3,4-dihydro-2H-benzo[b][1,4]oxazine-6-carboxamide] the figure was at most 25 nM.

For orientation: IC50 means the concentration that inhibits the measured activity by half.
